Measured values reported in ChEMBL document CHEMBL1156085, “Design of novel alpha7-subtype-preferring nicotinic acetylcholine receptor agonists: application of docking and MM-PBSA computational approaches, synthetic and pharmacological studies” (Bioorg Med Chem Lett, 2009).
pKi: −log10 of the molar value.

How the values were obtained:
[1] = target: T1, Neuronal acetylcholine receptor subunit alpha-7 (Rattus norvegicus, UniProt Q05941); test: Displacement of [125I]alpha-bungarotoxin from rat alpha7 nAChR
[2] = target: Neuronal acetylcholine receptor; alpha4/beta2 (Rattus norvegicus, UniProt P09483+P12390); test: Displacement of [3H]epibatidine from rat alpha4beta2 nAChR; format: protein-complex assay
[3] = target: T1, Neuronal acetylcholine receptor subunit alpha-7; test: Displacement of [3H]MLA from rat alpha7 nAChR

T1 sequence (Q05941 whole entry): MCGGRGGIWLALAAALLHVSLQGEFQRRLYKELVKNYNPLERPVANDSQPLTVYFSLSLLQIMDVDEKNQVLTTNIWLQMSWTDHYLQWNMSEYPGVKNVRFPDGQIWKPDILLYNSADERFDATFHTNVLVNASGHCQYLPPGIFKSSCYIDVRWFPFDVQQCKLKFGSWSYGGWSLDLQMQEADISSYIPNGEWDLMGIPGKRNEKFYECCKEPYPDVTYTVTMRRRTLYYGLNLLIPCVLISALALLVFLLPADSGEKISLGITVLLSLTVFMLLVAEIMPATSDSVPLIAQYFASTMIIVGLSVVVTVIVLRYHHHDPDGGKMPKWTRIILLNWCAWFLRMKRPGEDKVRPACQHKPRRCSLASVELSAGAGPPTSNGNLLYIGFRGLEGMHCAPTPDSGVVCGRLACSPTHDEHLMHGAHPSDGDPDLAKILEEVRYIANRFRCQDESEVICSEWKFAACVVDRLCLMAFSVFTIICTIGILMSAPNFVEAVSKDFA
Chain of Neuronal acetylcholine receptor; alpha4/beta2 (P09483 whole entry): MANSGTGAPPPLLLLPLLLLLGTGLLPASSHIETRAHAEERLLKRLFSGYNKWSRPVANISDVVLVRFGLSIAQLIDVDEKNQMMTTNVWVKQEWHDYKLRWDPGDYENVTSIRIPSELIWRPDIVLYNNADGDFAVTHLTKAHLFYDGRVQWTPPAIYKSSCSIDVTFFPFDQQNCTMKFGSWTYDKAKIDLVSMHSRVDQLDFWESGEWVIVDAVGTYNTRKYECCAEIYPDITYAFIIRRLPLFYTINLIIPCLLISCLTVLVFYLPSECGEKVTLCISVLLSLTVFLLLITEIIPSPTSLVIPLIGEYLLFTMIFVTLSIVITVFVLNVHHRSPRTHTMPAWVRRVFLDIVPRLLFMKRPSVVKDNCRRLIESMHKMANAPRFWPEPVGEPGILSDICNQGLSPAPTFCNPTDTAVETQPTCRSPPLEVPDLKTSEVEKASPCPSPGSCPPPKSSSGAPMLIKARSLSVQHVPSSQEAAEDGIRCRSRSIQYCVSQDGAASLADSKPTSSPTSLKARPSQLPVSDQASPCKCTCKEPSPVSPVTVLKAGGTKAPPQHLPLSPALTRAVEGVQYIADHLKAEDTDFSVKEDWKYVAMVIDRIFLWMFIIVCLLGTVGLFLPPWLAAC
Chain of Neuronal acetylcholine receptor; alpha4/beta2 (P12390 whole entry): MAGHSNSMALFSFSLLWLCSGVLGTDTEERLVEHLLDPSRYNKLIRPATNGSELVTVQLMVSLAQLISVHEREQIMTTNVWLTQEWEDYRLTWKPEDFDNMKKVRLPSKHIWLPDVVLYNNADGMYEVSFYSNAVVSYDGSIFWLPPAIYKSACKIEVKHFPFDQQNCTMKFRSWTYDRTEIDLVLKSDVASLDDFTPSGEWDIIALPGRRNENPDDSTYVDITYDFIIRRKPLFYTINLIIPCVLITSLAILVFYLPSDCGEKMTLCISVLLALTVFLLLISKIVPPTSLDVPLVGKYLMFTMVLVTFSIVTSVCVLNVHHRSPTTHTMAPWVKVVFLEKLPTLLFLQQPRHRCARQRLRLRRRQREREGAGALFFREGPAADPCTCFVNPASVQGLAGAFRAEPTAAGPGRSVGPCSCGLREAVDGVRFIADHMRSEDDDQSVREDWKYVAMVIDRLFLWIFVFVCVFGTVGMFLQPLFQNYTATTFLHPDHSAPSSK

c1cc(N2CCOCC2)ncc1C1CN2CCC1CC2 (stereo not drawn)
pKi [1]: 6.46 | pKi [2]: 4.68

C1=C(c2ccc(N3CCOCC3)nc2)C2CCC1N2 (stereo not drawn)
pKi [1]: 4.48 | pKi [2]: 4.92

C1=C(c2ccc(N3CCOCC3)nc2)C2CCN1CC2
pKi [1]: 6.40 | pKi [2]: 5.51

C[N+]12CCC(CC1)C(c1ccc(N3CCOCC3)nc1)C2 (stereo not drawn)
pKi [1]: 5.21 | pKi [2]: 4.60

C[N+]12C=C(c3ccc(N4CCOCC4)nc3)C(CC1)CC2
pKi [1]: 5.25 | pKi [2]: 4.66

C1=C(c2cccnc2)C2CCN1CC2
pKi [1]: 6.85 | pKi [2]: 6.96 | pKi [3]: 7.07
